Results from US10092002B2, “Herbicidal composition comprising nicosulfuron or its salt and S -metolachlor or its salt” (ISHIHARA SANGYO KAISHA, LTD., priority 2011, dated 2018).

Columns and labels:
Format in all cases: in vivo
[1] = tested on: annual bluegrass (Poa annua L.) having lowered sensitivity to herbicides; test: Test Example 8: foliar treatment of annual bluegrass having lowered sensitivity to herbicides, visual growth inhibition rate; conditions: foliar treatment at 5 to 6-leaf stage, 14th day after treatment
Text: When the herbicidal activity in a case where two active ingredients are combined, is larger than the simple sum of the respective herbicidal activities of the two active ingredients (the expected activity), it is called a synergistic effect. The activity expected by the combination of two active ingredients can be calculated as follows (Colby S. R., “Weed”, vol. 15, p. 20-22, 1967). E1=α+β−(α×β÷100)
(§1) Growth inhibition rate (%)=0 (equivalent to the non-treated area) to 100 (complete kill)
Upland field soil was put into a 1/1,000,000 ha pot, and seeds of annual bluegrass (Poa annua L.) having lowered sensitivity to herbicides were sown. When the annual bluegrass reached 5 to 6-leaf stage, predetermined amounts of ONEHOPE NYUZAI (tradename) and Dual Gold (tradename) were diluted with water (corresponding to 300 L/ha) and applied for foliar treatment by a small sprayer.
The growth inhibition rate (%) (measured value) and the growth inhibition rate (%) calculated in the same manner as in Test Example 1 are shown in Table 9.

[2] = tested on: sunn-hemp (Crotalaria juncea L.); test: Test Example 4: soil treatment, sunn-hemp, visual growth inhibition rate; conditions: soil treatment the day after sowing, 28th day after treatment
Text: In a case where three active ingredients are combined, the activity can be similarly calculated as follows. E2=(α+β+γ)−(αβ+αγ+βγ)/100+(αβγ)/10000 where α: growth inhibition rate when treated with x (g/ha) of herbicide X,
as §1
Upland field soil was put into a 1/300,000 ha pot, and seeds of sunn-hemp (Crotalaria juncea L.) were sown.

[3] = tested on: green kyllinga (Kyllinga brevifolia Rottb. var. leiolepis) having lowered sensitivity to herbicides; test: Test Example 6: foliar treatment of green kyllinga having lowered sensitivity to herbicides, visual growth inhibition rate; conditions: foliar treatment at height 5 to 7 cm, 21st day after treatment
Text: When the herbicidal activity in a case where two active ingredients are combined, is larger than the simple sum of the respective herbicidal activities of the two active ingredients (the expected activity), it is called a synergistic effect. The activity expected by the combination of two active ingredients can be calculated as follows (Colby S. […] E1=α+β-(α×β÷100) On the 22nd day after treatment, the state of growth of the common cocklebur was visually observed to determine the growth inhibition rate in accordance with the following evaluation standard. The growth inhibition rate (%) (measured value) and the growth inhibition rate (%) (calculated value) calculated by the Colby's formula are shown in Table 1. […] Upland field soil was put into a 1/1,000,000 ha pot, and rhizomes of green […] brevifolia Rottb. var. leiolepis) having lowered sensitivity to herbicides were planted. When the height of green […] reached 5 to 7 cm, predetermined amounts of […] Dual Gold (tradename) were diluted with water (corresponding to 300 Uha) and applied for foliar treatment by a small sprayer. On the 21st day after treatment, the state of growth of the green […] visually observed to determine the growth inhibition rate.

[4] = tested on: Japanese bristlegrass (Setaria faberi Herrm); test: Test Example 7: soil treatment, residual activity, Japanese bristlegrass sown 14 days after treatment; conditions: seeds sown on the 14th day after treatment, 21st day after sowing
Text: When the herbicidal activity in a case where two active ingredients are combined, is larger than the simple sum of the respective herbicidal activities of the two active ingredients (the expected activity), it is called a synergistic effect. The activity expected by the combination of two active ingredients can be calculated as follows (Colby S. R., “Weed”, vol. 15, p. 20-22, 1967). E1=α+β-(α×β÷100) On the 22nd day after treatment, the state of growth of the common cocklebur was visually observed to determine the growth inhibition rate in accordance with the following evaluation standard. The growth inhibition rate (%) (measured value) and the growth inhibition rate (%) (calculated value) calculated by the Colby's formula are shown in Table 1. […] Upland field soil was put into a 1/500,000 ha pot, and on the next day, predetermined amounts of […] Dual Gold (tradename) were diluted with water (corresponding to 300 L/ha) and applied for soil treatment by a small sprayer. On the 14th day after treatment, seeds of Japanese bristlegrass (Setaria faberi Herrm) and spotted knotweed, (Polygonum lapathifolium L.) were sown. On the 21st day after sowing, the state of growth of the Japanese bristlegrass and the spotted knotweed was visually observed to determined the growth inhibition rate.

Row | Compound | inhibition at 100 g/ha ([1]; Poa annua, dose 100 g/ha, read-out: Growth inhibition rate (%) of annual bluegrass, Measured value) [%] | inhibition at 10 g/ha ([2]; Crotalaria juncea, dose 10 g/ha, read-out: Growth inhibition rate (%) of sunn-hemp, Measured value) [%] | inhibition at 100 g/ha ([2]; Crotalaria juncea, dose 100 g/ha, read-out: Growth inhibition rate (%) of sunn-hemp, Measured value) [%] | inhibition at 30 g/ha ([3]; Cyperus brevifolius, dose 30 g/ha, read-out: Growth inhibition rate (%) of green kyllinga, Measured value) [%] | inhibition at 100 g/ha ([3]; Cyperus brevifolius, dose 100 g/ha, read-out: Growth inhibition rate (%) of green kyllinga, Measured value) [%] | inhibition at 100 g/ha ([4]; Setaria faberi, dose 100 g/ha, read-out: Growth inhibition rate (%) of Japanese bristlegrass, Measured value) [%] | Growth inhibition rate (%) of annual bluegrass, Measured value ([1]; dose 1000 g/ha) [%] | Growth inhibition rate (%) of annual bluegrass, Measured value ([1]; dose 2000 g/ha) [%] | Growth inhibition rate (%) of sunn-hemp, Measured value ([2]; dose 250 g/ha) [%] | Growth inhibition rate (%) of sunn-hemp, Measured value ([2]; dose 2000 g/ha) [%] | Growth inhibition rate (%) of green kyllinga, Measured value ([3]; dose 500 g/ha) [%] | Growth inhibition rate (%) of green kyllinga, Measured value ([3]; dose 1000 g/ha) [%] | Growth inhibition rate (%) of Japanese bristlegrass, Measured value ([4]; dose 250 g/ha) [%]
1 | COc1cc(OC)nc(NC(=O)NS(=O)(=O)c2ncccc2C(=O)N(C)C)n1 [Nicosulfuron, 2-(4,6-dimethoxypyrimidin-2-ylcarbamoylsulfamoyl)-N,N-dimethylnicotinamide] | 87 | 0 | 0 | 20 | 40 | 33 |  |  |  |  |  |  | 
2 | a mixture of (aRS,1S)-2-chloro-6′-ethyl-N-(2-methoxy-1-methylethyl)aceto-o-toluidide (80 to 100%) and (aRS,1R)-2-chloro-6′-ethyl-N-(2-methoxy-1-methylethyl)aceto-o-toluidide (20 to 0%) [S-metolachlor] |  |  |  |  |  |  | 18 | 28 | 0 | 0 | 15 | 45 | 10
